Values quoted from earlier work, collected in patent US20170172144A1, “ECTOPARASITE FORMULATION” (priority 2014, published 2017).
Counter-ions that a name gives are not always drawn.

Conditions: qualitative statement

| Compound | aqueous solubility |
| --- | --- |
| c1ccc([C@H]2CN3CCSC3=N2)cc1 [levamisole hydrochloride, Levamisole hydrochloride] | soluble |
| COC(=O)Nc1nc2ccc([S+]([O-])c3ccccc3)cc2[nH]1 (stereo not drawn) [oxfendazole, Oxfendazole] | relatively low solubility |
| Abamectin | relatively low solubility |
